Measured values: patent US20260007681A1, “INDOLE DERIVATIVES AS ESTROGEN RECEPTOR DEGRADERS” (REGENTS OF THE UNIVERSITY OF MICHIGAN, priority 2022, published 2026)

Molecular target: ER (Homo sapiens (Human), UniProt P03372)
Assay: Western blot analysis (Compounds B1-B278)
Assay type: cell-based
Settings: ER degradation by traditional Western blot; DC50 classes
In short: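 Relative target-protein levels come from densitometry of immunoblots, normalized to GAPDH. Lysates from treated cells were prepared in RIPA buffer (pH 7.6) containing protease inhibitors, and equal protein amounts, checked by BCA, were separated on 10% gels and blotted onto PVDF.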

ER, sequence (P03372 whole entry): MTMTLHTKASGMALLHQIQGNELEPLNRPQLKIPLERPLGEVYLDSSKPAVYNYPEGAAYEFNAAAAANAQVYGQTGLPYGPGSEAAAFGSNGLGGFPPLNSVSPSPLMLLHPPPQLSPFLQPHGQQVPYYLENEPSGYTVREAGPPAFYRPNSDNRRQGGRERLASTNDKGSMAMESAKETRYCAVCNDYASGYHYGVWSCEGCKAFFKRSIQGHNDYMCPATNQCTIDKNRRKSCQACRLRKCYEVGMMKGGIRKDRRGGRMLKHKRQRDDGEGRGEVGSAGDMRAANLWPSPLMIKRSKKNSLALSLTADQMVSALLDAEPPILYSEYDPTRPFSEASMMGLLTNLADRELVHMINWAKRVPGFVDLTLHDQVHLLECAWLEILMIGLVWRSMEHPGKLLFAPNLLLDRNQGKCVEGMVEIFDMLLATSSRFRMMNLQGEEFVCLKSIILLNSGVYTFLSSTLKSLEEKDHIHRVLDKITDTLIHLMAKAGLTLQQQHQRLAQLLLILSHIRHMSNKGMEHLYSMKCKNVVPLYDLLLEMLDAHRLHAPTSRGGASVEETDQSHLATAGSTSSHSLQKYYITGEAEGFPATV

Traditional Western Degradation Potency | SMILES
C (“C”: >100 nM) | C[C@@H]1Cc2c([nH]c3ccccc23)[C@@H](c2c(F)cc(N3CC(CC(=O)N4Cc5cc6c(cc5C4)C(=O)N(C4CCC(=O)NC4=O)C6)C3)cc2F)N1CC(F)F (stereo partly drawn) [Compound B42, 3-(6-(2-(1-(4-((1R,3R)-2-(2,2-difluoroethyl)-3-methyl-2,3,4,9-tetrahydro-1H-pyrido[3,4-b]indol-1-yl)-3,5-difluorophenyl)azetidin-3-yl)acetyl)-1-oxo-3,5,6,7-tetrahydropyrrolo[3,4-f]isoindol-2(1H)-yl)piperidine-2,6-dione]
C (“C”: >100 nM) | C[C@@H]1Cc2c([nH]c3ccccc23)[C@@H](c2c(F)cc(N3CC4(CCN4CC(=O)N4Cc5cc6c(cc5C4)C(=O)N(C4CCC(=O)NC4=O)C6=O)C3)cc2F)N1CC(F)F (stereo partly drawn) [Compound B191, 6-(2-(6-(4-((1R,3R)-2-(2,2-difluoroethyl)-3-methyl-2,3,4,9-tetrahydro-1H-pyrido[3,4-b]indol-1-yl)-3,5-difluorophenyl)-1,6-diazaspiro[3.3]heptan-1-yl)acetyl)-2-(2,6-dioxopiperidin-3-yl)-6,7-dihydropyrrolo[3,4-f]isoindole-1,3(2H,5H)-dione]
B (“B”: 10-100 nM) | C[C@@H]1Cc2c([nH]c3ccccc23)[C@@H](c2c(F)cc(N3CC(CC(=O)N4CC(N5Cc6cc7c(cc6C5)C(=O)N(C5CCC(=O)NC5=O)C7)C4)C3)cc2F)N1CC(F)F (stereo partly drawn) [Compound B71, 3-(6-(1-(2-(1-(4-((1R,3R)-2-(2,2-difluoroethyl)-3-methyl-2,3,4,9-tetrahydro-1H-pyrido[3,4-b]indol-1-yl)-3,5-difluorophenyl)azetidin-3-yl)acetyl)azetidin-3-yl)-1-oxo-3,5,6,7-tetrahydropyrrolo[3,4-f]isoindol-2(1H)-yl)piperidine-2,6-dione]
A (“A”: <10 nM) | C[C@@H]1Cc2c([nH]c3ccccc23)[C@@H](c2ccc(N3CCC(C(=O)N4CCC(N5Cc6cc7c(cc6C5)C(=O)N(C5CCC(=O)NC5=O)C7=O)CC4)CC3)cc2F)N1CC(F)F (stereo partly drawn) [Compound B232, 6-(1-(1-(4-((1R,3R)-2-(2,2-difluoroethyl)-3-methyl-2,3,4,9-tetrahydro-1H-pyrido[3,4-b]indol-1-yl)-3-fluorophenyl)piperidine-4-carbonyl)piperidin-4-yl)-2-(2,6-dioxopiperidin-3-yl)-6,7-dihydropyrrolo[3,4-f]isoindole-1,3(2H,5H)-dione]
A (“A”: <10 nM) | C[C@@H]1Cc2c([nH]c3ccccc23)[C@@H](c2c(F)cc(N3CCC(N4CCC(CC(=O)N5Cc6cc7c(cc6C5)C(=O)N(C5CCC(=O)NC5=O)C7=O)CC4)CC3)cc2F)N1CC(F)F (stereo partly drawn) [Compound B33, 6-(2-(1′-(4-((1R,3R)-2-(2,2-difluoroethyl)-3-methyl-2,3,4,9-tetrahydro-1H-pyrido[3,4-b]indol-1-yl)-3,5-difluorophenyl)-[1,4′-bipiperidin]-4-yl)acetyl)-2-(2,6-dioxopiperidin-3-yl)-6,7-dihydropyrrolo[3,4-f]isoindole-1,3(2H,5H)-dione]
B (“B”: 10-100 nM) | C[C@@H]1Cc2c([nH]c3ccccc23)[C@@H](c2ccc(N3CCC4(CCN(C(=O)CN5Cc6cc7c(cc6C5)C(=O)N(C5CCC(=O)NC5=O)C7=O)CC4)CC3)cc2F)N1CC(F)F (stereo partly drawn) [Compound B231, 6-(2-(9-(4-((1R,3R)-2-(2,2-difluoroethyl)-3-methyl-2,3,4,9-tetrahydro-1H-pyrido[3,4-b]indol-1-yl)-3-fluorophenyl)-3,9-diazaspiro[5.5]undecan-3-yl)-2-oxoethyl)-2-(2,6-dioxopiperidin-3-yl)-6,7-dihydropyrrolo[3,4-f]isoindole-1,3(2H,5H)-dione]
A (“A”: <10 nM) | C[C@@H]1Cc2c([nH]c3ccccc23)[C@@H](c2c(F)cc(N3CCC4(CN(C(=O)CN5Cc6cc7c(cc6C5)C(=O)N(C5CCC(=O)NC5=O)C7=O)C4)C3)cc2F)N1CC(F)F (stereo partly drawn) [Compound B26, 6-(2-(6-(4-((1R,3R)-2-(2,2-difluoroethyl)-3-methyl-2,3,4,9-tetrahydro-1H-pyrido[3,4-b]indol-1-yl)-3,5-difluorophenyl)-2,6-diazaspiro[3.4]octan-2-yl)-2-oxoethyl)-2-(2,6-dioxopiperidin-3-yl)-6,7-dihydropyrrolo[3,4-f]isoindole-1,3(2H,5H)-dione]
B (“B”: 10-100 nM) | C[C@@H]1Cc2c([nH]c3ccccc23)[C@@H](c2c(F)cc(N3CCC(N4CCC(CN5Cc6cc7c(cc6C5)C(=O)N(C5CCC(=O)NC5=O)C7)CC4)CC3)cc2F)N1CC(F)F (stereo partly drawn) [Compound B29, 3-(6-((1′-(4-((1R,3R)-2-(2,2-difluoroethyl)-3-methyl-2,3,4,9-tetrahydro-1H-pyrido[3,4-b]indol-1-yl)-3,5-difluorophenyl)-[1,4′-bipiperidin]-4-yl)methyl)-1-oxo-3,5,6,7-tetrahydropyrrolo[3,4-f]isoindol-2(1H)-yl)piperidine-2,6-dione]
B (“B”: 10-100 nM) | C[C@@H]1Cc2c([nH]c3ccccc23)[C@@H](c2c(F)cc(N3CC(C(=O)N4CC(N5Cc6cc7c(cc6C5)C(=O)N(C5CCC(=O)NC5=O)C7=O)C4)C3)cc2F)N1CC(F)F (stereo partly drawn) [Compound B202, 6-(1-(1-(4-((1R,3R)-2-(2,2-difluoroethyl)-3-methyl-2,3,4,9-tetrahydro-1H-pyrido[3,4-b]indol-1-yl)-3,5-difluorophenyl)azetidine-3-carbonyl)azetidin-3-yl)-2-(2,6-dioxopiperidin-3-yl)-6,7-dihydropyrrolo[3,4-f]isoindole-1,3(2H,5H)-dione]
A (“A”: <10 nM) | C[C@@H]1Cc2c([nH]c3ccccc23)[C@@H](c2c(F)cc(N3CCC(CN4CCCC(N5Cc6cc7c(cc6C5)C(=O)N(C5CCC(=O)NC5=O)C7=O)CC4)CC3)cc2F)N1CC(F)F (stereo partly drawn) [Compound B67, 6-(1-((1-(4-((1R,3R)-2-(2,2-difluoroethyl)-3-methyl-2,3,4,9-tetrahydro-1H-pyrido[3,4-b]indol-1-yl)-3,5-difluorophenyl)piperidin-4-yl)methyl)azepan-4-yl)-2-(2,6-dioxopiperidin-3-yl)-6,7-dihydropyrrolo[3,4-f]isoindole-1,3(2H,5H)-dione]
B (“B”: 10-100 nM) | C[C@@H]1Cc2c([nH]c3ccccc23)[C@@H](c2c(F)cc(N3CCC4(CCN(C(=O)CN5Cc6cc7c(cc6C5)C(=O)N(C5CCC(=O)NC5=O)C7)C4)C3)cc2F)N1CC(F)F (stereo partly drawn) [Compound B11, 3-(6-(2-(7-(4-((1R,3R)-2-(2,2-difluoroethyl)-3-methyl-2,3,4,9-tetrahydro-1H-pyrido[3,4-b]indol-1-yl)-3,5-difluorophenyl)-2,7-diazaspiro[4.4]nonan-2-yl)-2-oxoethyl)-1-oxo-3,5,6,7-tetrahydropyrrolo[3,4-f]isoindol-2(1H)-yl)piperidine-2,6-dione]
A (“A”: <10 nM) | C[C@@H]1Cc2c([nH]c3ccccc23)[C@@H](c2c(F)cc(N3CCC4(CCN(CC(=O)N5Cc6cc7c(cc6C5)C(=O)N(C5CCC(=O)NC5=O)C7)C4)CC3)cc2F)N1CC(F)F (stereo partly drawn) [Compound B194, 3-(6-(2-(8-(4-((1R,3R)-2-(2,2-difluoroethyl)-3-methyl-2,3,4,9-tetrahydro-1H-pyrido[3,4-b]indol-1-yl)-3,5-difluorophenyl)-2,8-diazaspiro[4.5]decan-2-yl)acetyl)-1-oxo-3,5,6,7-tetrahydropyrrolo[3,4-f]isoindol-2(1H)-yl)piperidine-2,6-dione]
